Laboratory results as given in publication PMC12084609, “Structural insights into small-molecule agonist recognition and activation of complement receptor C3aR” (The EMBO Journal, 2025).
Residue numbers refer to the chain shown, from its start. Where “and” joins values, the source holds several entries; their conditions need not be identical. Equal values may be shown once. Read-outs that look alike come from different tables or passages of the source.

Assays:
Type in all cases: cell-based
C3aR H81^2.63A = target: T1, C3aR H81^2.63A (Homo sapiens, UniProt Q16581, H81A); experiment: GloSensor-based cAMP assay, C3aR mutant H81A; details: for Mean Diff. of pIC50, WT vs. H81A: Dunnett's multiple comparisons test, WT minus mutant; for ΔpIC50 ± SE of Diff.: H81^2.63A relative to WT C3aR; for cAMP response (% Forskolin): H812.63A
T1 construct: expressed in transfected cells; host or cells: HEK293T
T1 sequence (Q16581 1-482 H81A): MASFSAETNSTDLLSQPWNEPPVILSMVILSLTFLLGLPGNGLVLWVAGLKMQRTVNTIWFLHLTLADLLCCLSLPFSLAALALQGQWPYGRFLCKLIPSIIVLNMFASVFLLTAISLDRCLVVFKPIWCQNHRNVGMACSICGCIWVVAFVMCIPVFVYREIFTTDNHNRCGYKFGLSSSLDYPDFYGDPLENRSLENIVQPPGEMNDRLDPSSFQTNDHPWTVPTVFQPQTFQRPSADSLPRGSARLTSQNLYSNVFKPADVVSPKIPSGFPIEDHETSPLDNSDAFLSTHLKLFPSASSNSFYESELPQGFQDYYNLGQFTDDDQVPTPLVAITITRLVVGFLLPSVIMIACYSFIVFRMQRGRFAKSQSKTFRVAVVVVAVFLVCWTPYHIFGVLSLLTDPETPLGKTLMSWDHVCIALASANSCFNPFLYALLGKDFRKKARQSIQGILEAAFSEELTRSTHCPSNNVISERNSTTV
Protocol: (§1) HEK293T cells were seeded on 6-well plates (NEST) and transfected with pGlosensor™-22F plasmids (Promega) and pcDNA3.1 plasmids encoding C3aR or its mutants an with N-terminal FLAG tag. After 48 h, cells were detached with Accutase solution (Sigma-Aldrich) and washed with PBS, and resuspended in assay buffer (CO2-independent medium with 0.5 mg mL^−1D-luciferin). 100,000–200,000 cells were seeded on 96-well white bottom plates (SPL) and incubated at 37 °C for 45 min followed by 45 min incubation at room temperature. After 90 min of incubation, basal luminescence signals were recorded. In total, 25 μl of test ligand with various concentrations and 1 μM Forskolin (Sigma-Aldrich) were treated to the cells and luminescence signals were measured by Tristar 2 LB 942 multimode reader (Berthold). […] Relative luminescence unit (%) was calculated with the signal of wells treated with vehicle as 0% and the signal of wells treated with 1 μM Forskolin as 100% (DiRaddo et al, [2014]). Nonlinear regression was performed using a three-parameter logistic equation.

C3aR R161^ECL2A = target: T2, C3aR R161^ECL2A (Homo sapiens, UniProt Q16581, R161A); experiment: GloSensor-based cAMP assay, C3aR mutant R161A; details: for cAMP response (% Forskolin): R161ECL2A
T2 construct: expressed in transfected cells; host or cells: HEK293T
T2 sequence (Q16581 1-482 R161A): T1 sequence (Q16581 1-482 H81A) with A81H, R161A
Protocol: as §1

C3aR D417^7.35A = target: T3, C3aR D417^7.35A (Homo sapiens, UniProt Q16581, D417A); experiment: GloSensor-based cAMP assay, C3aR mutant D417A; details: for cAMP response (% Forskolin): D4177.35A
T3 construct: expressed in transfected cells; host or cells: HEK293T
T3 sequence (Q16581 1-482 D417A): T1 sequence (Q16581 1-482 H81A) with A81H, D417A
Protocol: as §1

[1] = Dunnett's multiple comparisons test, WT minus mutant
[2] = Log[C3a (M)] -7, single replicates
[3] = Log[C3a (M)] -8, single replicates
[4] = Log[C3a (M)] -9, single replicates
[5] = Log[C3a (M)] -10, single replicates
[6] = Log[C3a (M)] -11, single replicates
[7] = Log[C3a (M)] -12, single replicates

Cc1cc(C(c2ccc(Cl)cc2)c2ccc(Cl)cc2)sc1C(=O)N[C@@H](CCCNC(=N)N)C(=O)O [JR14a, reference compound] was tested, and the “Mean Diff. of pIC50, WT vs. H81A” value (C3aR H81^2.63A) was 0.544, the remaining activity at 0.001 µM (C3aR H81^2.63A; H81A, Log[JR14a (M)] -9, single replicates, read-out: cAMP response (% Forskolin)) was 94.5% and the remaining activity at 0.0001 µM (C3aR H81^2.63A; H81A, Log[JR14a (M)] -10, single replicates, read-out: cAMP response (% Forskolin)) was 95.5%. The remaining activity at 10 pM (C3aR H81^2.63A; H81A, Log[JR14a (M)] -11, single replicates, read-out: cAMP response (% Forskolin)) was 93.3%, the “ΔpIC50 ± SE of Diff.” value (C3aR H81^2.63A) was -0.54 ± 0.05 and the IC50 (C3aR H81^2.63A; H81^2.63A, individual replicates, read-out: pIC50 (Replicate) (converted)) was 6.31 nM. The IC50 (C3aR H81^2.63A; IC50, H81^2.63A, dose-response plot) was 12.4 nM, the IC50 (C3aR H81^2.63A; pIC50 (Replicate), H81^2.63A, individual replicates) was 12 nM and 16.2 nM and 18.2 nM and the “Mean Diff. of pIC50, WT vs. R161A” value (C3aR R161^ECL2A; [1]) was -0.085. It also gave an IC50 (C3aR R161^ECL2A; IC50, R161^ECL2A, dose-response plot, Not calculated = entire loss of signaling) of 2.28 nM, a remaining activity at 1 µM (C3aR R161^ECL2A; R161A, Log[JR14a (M)] -6, single replicates, read-out: cAMP response (% Forskolin)) of 11.8% and a remaining activity at 0.1 µM (C3aR R161^ECL2A; R161A, Log[JR14a (M)] -7, single replicates, read-out: cAMP response (% Forskolin)) of 13.6%. It also gave a remaining activity at 0.01 µM (C3aR R161^ECL2A; R161A, Log[JR14a (M)] -8, single replicates, read-out: cAMP response (% Forskolin)) of 41.3%, a remaining activity at 0.001 µM (C3aR R161^ECL2A; R161A, Log[JR14a (M)] -9, single replicates, read-out: cAMP response (% Forskolin)) of 79.3% and a remaining activity at 0.0001 µM (C3aR R161^ECL2A; R161A, Log[JR14a (M)] -10, single replicates, read-out: cAMP response (% Forskolin)) of 99.1%. The remaining activity at 10 pM (C3aR R161^ECL2A; R161A, Log[JR14a (M)] -11, single replicates, read-out: cAMP response (% Forskolin)) was 108%, the “ΔpIC50 ± SE of Diff.” value (C3aR R161^ECL2A; R161^ECL2A relative to WT C3aR) was 0.09 ± 0.04 and the “decrease in IC50 values vs WT” value (C3aR R161^ECL2A; R161^ECL2 to Ala, relatively mild effect on downstream signaling) was less than 10 fold. The IC50 (C3aR R161^ECL2A; pIC50 (Replicate), R161^ECL2A, individual replicates) was 3.72 nM and 1.86 nM and 1.74 nM, the remaining activity at 1 µM (C3aR D417^7.35A; D417A, Log[JR14a (M)] -6, single replicates, read-out: cAMP response (% Forskolin)) was 35.7% and the remaining activity at 0.1 µM (C3aR D417^7.35A; D417A, Log[JR14a (M)] -7, single replicates, read-out: cAMP response (% Forskolin)) was 87.8%. For the same compound, the remaining activity at 0.001 µM (C3aR D417^7.35A; D417A, Log[JR14a (M)] -9, single replicates, read-out: cAMP response (% Forskolin)) was 105%, the remaining activity at 0.0001 µM (C3aR D417^7.35A; D417A, Log[JR14a (M)] -10, single replicates, read-out: cAMP response (% Forskolin)) was 104% and the “ΔpIC50 ± SE of Diff.” value (C3aR D417^7.35A; D417^7.35A relative to WT C3aR) was -2.18 ± 0.05. For the same compound, the “Mean Diff. of pIC50, WT vs. D417A” value (C3aR D417^7.35A; [1]) was 2.176, the IC50 (C3aR D417^7.35A; IC50, D417^7.35A, dose-response plot, Not calculated = entire loss of signaling) was 425 nM and the IC50 (C3aR D417^7.35A; pIC50 (Replicate), D417^7.35A, individual replicates) was 575 nM and 339 nM and 380 nM. The IC50 (C3aR D417^7.35A; pIC50 ± SEM (Mean), D417^7.35A, mean of independent experiments, Not calculated = entire loss of signaling) was 417 nM.

In the case of “C3a: anaphylatoxin C3a, natural peptide ligand of C3aR (a 77-amino acid peptide), Sigma-Aldrich”, the “Mean Diff. of pIC50, WT vs. H81A” value (C3aR H81^2.63A) is reported as 0.390, the “ΔpIC50 ± SE of Diff.” value (C3aR H81^2.63A) is reported as -0.39 ± 0.05 and the IC50 (C3aR H81^2.63A; H81^2.63A, dose-response plot, read-out: IC50) is reported as 7.45 nM. For the same compound, the “pIC50 (Replicate)” value (C3aR H81^2.63A; H81^2.63A, individual replicates) was 8.23 and 8.03 and 8.24 and 8.26 and 7.82 and 8.16 and 8.00, the “pIC50 ± SEM (Mean)” value (C3aR H81^2.63A; H81^2.63A, mean of independent experiments) was 8.11 and the “cAMP response (% Forskolin)” value (C3aR H81^2.63A; [2]) was 16.97 % Forskolin and 18.16 % Forskolin and 16.81 % Forskolin and 12.45 % Forskolin and 16.49 % Forskolin and 12.75 % Forskolin and 10.89 % Forskolin. The “cAMP response (% Forskolin)” value (C3aR H81^2.63A; [3]) was 37.38 % Forskolin and 51.57 % Forskolin and 36.98 % Forskolin and 30.38 % Forskolin and 58.58 % Forskolin and 40.19 % Forskolin and 48.13 % Forskolin, the “cAMP response (% Forskolin)” value (C3aR H81^2.63A; [4]) was 95.75 % Forskolin and 95.02 % Forskolin and 98.54 % Forskolin and 105.34 % Forskolin and 92.35 % Forskolin and 92.22 % Forskolin and 94.48 % Forskolin and the “cAMP response (% Forskolin)” value (C3aR H81^2.63A; [5]) was 97.40 % Forskolin and 98.52 % Forskolin and 99.76 % Forskolin and 98.68 % Forskolin and 88.34 % Forskolin and 99.56 % Forskolin and 95.62 % Forskolin. For the same compound, the “cAMP response (% Forskolin)” value (C3aR H81^2.63A; [6]) was 96.99 % Forskolin and 98.64 % Forskolin and 99.98 % Forskolin and 102.79 % Forskolin and 93.58 % Forskolin and 91.17 % Forskolin and 97.12 % Forskolin, the “cAMP response (% Forskolin)” value (C3aR H81^2.63A; [7]) was 95.00 % Forskolin and 97.54 % Forskolin and 97.75 % Forskolin and 103.25 % Forskolin and 100.37 % Forskolin and 97.05 % Forskolin and 96.06 % Forskolin and the “cAMP response (% Forskolin)” value (C3aR R161^ECL2A; [2]) was 95.22 % Forskolin and 113.23 % Forskolin and 84.95 % Forskolin. For the same compound, the “cAMP response (% Forskolin)” value (C3aR R161^ECL2A; [3]) was 93.59 % Forskolin and 100.34 % Forskolin and 90.06 % Forskolin, the “cAMP response (% Forskolin)” value (C3aR R161^ECL2A; [4]) was 101.94 % Forskolin and 107.61 % Forskolin and 95.04 % Forskolin and the “cAMP response (% Forskolin)” value (C3aR R161^ECL2A; [5]) was 94.48 % Forskolin and 102.25 % Forskolin and 94.73 % Forskolin. For the same compound, the “cAMP response (% Forskolin)” value (C3aR R161^ECL2A; [6]) was 103.03 % Forskolin and 121.75 % Forskolin and 96.66 % Forskolin, the “cAMP response (% Forskolin)” value (C3aR R161^ECL2A; [7]) was 95.52 % Forskolin and 105.32 % Forskolin and 102.35 % Forskolin and the “cAMP response (% Forskolin)” value (C3aR D417^7.35A; [2]) was 91.99 % Forskolin and 99.64 % Forskolin and 84.06 % Forskolin. The “cAMP response (% Forskolin)” value (C3aR D417^7.35A; [3]) was 90.00 % Forskolin and 93.47 % Forskolin and 96.64 % Forskolin, the “cAMP response (% Forskolin)” value (C3aR D417^7.35A; [4]) was 98.82 % Forskolin and 114.21 % Forskolin and 106.52 % Forskolin and the “cAMP response (% Forskolin)” value (C3aR D417^7.35A; [5]) was 109.81 % Forskolin and 104.73 % Forskolin and 103.88 % Forskolin. For the same compound, the “cAMP response (% Forskolin)” value (C3aR D417^7.35A; [6]) was 98.54 % Forskolin and 110.53 % Forskolin and 108.95 % Forskolin and the “cAMP response (% Forskolin)” value (C3aR D417^7.35A; [7]) was 97.82 % Forskolin and 107.45 % Forskolin and 101.02 % Forskolin.
